{
  "source": "patent US20250230173A1",
  "about": "“SALT FORMS OF AN AXL INHIBITOR” (Arcus Biosciences, Inc., priority 2023, published 2025)",
  "assay_type_in_all_cases": "physicochemical",
  "key": {"[1]": {"experiment": "Stability of 2-Napsylate Form I under variable humidity (XRPD)", "conditions": "RH 10% to 90% at 25° C., every 10% RH, 4 hr equilibration at each step", "experimental": "2-Napsylate Form I was used to test form changes as a function of RH from 10% to 90% at 25° C. The XRPD data was collected every 10% RH (FIG. 20) with an equilibration time of 4 hr at each step."}, "[2]": {"experiment": "Stability study of selected solid forms, HPLC purity after 7 days of storage"}, "[3]": {"experiment": "Form conversion of 2-Napsylate crystalline forms on vacuum drying or in slurry (XRPD)", "conditions": "slurry at 50° C., ACN/DMSO (11:1), after 20 days"}, "[4]": {"experiment": "Long term and accelerated stability of 2-Napsylate Form I", "conditions": "for Changes on storage: as of 3 months", "experimental": "Samples of 2-Napsylate Form I were further tested for long term and accelerated stability. Samples of the compound are stored at conditions of either 2-8° C. (long term) or 25° C. and 60% RH (accelerated). Stability samples are packaged in double low-density polyethylene (LDPE) bags in a high-density polyethylene (HDPE) outer container.\nSamples are tested for appearance, assay, chemical purity, water content, microbial limits, and crystallinity."}, "[5]": {"experiment": "Stability study of selected solid forms, XRPD after 7 days of storage", "excerpt": "XRPD diffractograms were collected with a Bruker, D2 Phaser or Panalytical Empyrean X-ray diffractometer. Diffractograms can be read by one of skill in the art, for example, to determine if a chemical sample is the substantially the same, different, or represents a mixture of forms. When a diffractogram is “substantially in accordance” as another diffractogram, a person of skill in the art would regard the samples resulting in the two diffractograms as the same form or same mixture of forms, taking into account minor variations for instrumentation, conditions, and the like.\nA stability study comparing amorphous freebase Compound I, Freebase Form II, 2-Napsylate Form I, Fumarate Form I, Succinate Form I, and Camsylate Form I was conducted. HPLC measurements were taken after 7 days of storage at the indicated conditions."}, "[6]": {"experiment": "Storage at 40° C. and 75% RH for one week (XRPD)", "experimental": "The stability of 2-Napsylate Form I was compared with the stability of 2-[…] Form VI when stored at 40° C. and 75% RH for a period of one week."}, "[7]": {"experiment": "Hygroscopicity by DVS, XRPD before and after", "conditions": "two DVS cycles, 0-90% RH", "experimental": "Hygroscopicity of 2-Napsylate Forms I and VI were assessed using DVS. Samples of 2-Napyslate Form I and Form VI (7-20 mg) were placed separately into a tared sample chamber and automatically weighed."}},
  "note": "Entries after “also recorded” stand apart in the source; their conditions may differ.",
  "data": [
    {"smiles": "Cc1cccnc1-c1ccc(-c2n[nH]c3ncc(-c4ccc5c(c4)CC[C@@H](N4C6COCC4C6)CC5)cc23)nc1", "note": "[2-Napsylate Form I]", "values": [
      {"measurement": "Form change as a function of RH (XRPD)", "setting": "[1]", "result": "No form change was observed"},
      {"measurement": "HPLC Purity (A %)", "setting": "[2]; 7 days, 25° C.", "result": 99.82, "unit": "A %"},
      {"measurement": "HPLC Purity (A %)", "setting": "[2]; 7 days, 40° C. / 75% RH", "result": 99.35, "unit": "A %"},
      {"measurement": "HPLC Purity (A %)", "setting": "[2]; 7 days, 60° C.", "result": 99.21, "unit": "A %"},
      {"measurement": "Chemical and physical stability compared to the other forms tested", "setting": "[2]; Example 6 stability study", "result": "better chemical and physical stability; also recorded: improved chemical and physical stability"},
      {"measurement": "HPLC Purity (A %)", "setting": "[2]; T0", "result": 99.82, "unit": "A %"},
      {"measurement": "Crystal form after prolonged slurry", "setting": "[3]", "result": "Form IV + extra XRPD"},
      {"measurement": "Assay ‘anhydrous and solvent-free basis’ (% w/w)", "setting": "[4]; 2-8° C., 1 month", "result": 96.9, "unit": "% w/w"},
      {"measurement": "Crystallinity", "setting": "[4]; 2-8° C., 1 month", "result": "Crystalline"},
      {"measurement": "Total impurity (% a/a)", "setting": "[4]; 2-8° C., 1 month", "result": 1.7, "unit": "% a/a"},
      {"measurement": "Water content (% w/w)", "setting": "[4]; 2-8° C., 1 month", "result": 1.2, "unit": "% w/w"},
      {"measurement": "Assay ‘anhydrous and solvent-free basis’ (% w/w)", "setting": "[4]; 2-8° C., 3 months", "result": 96.1, "unit": "% w/w"},
      {"measurement": "Crystallinity", "setting": "[4]; 2-8° C., 3 months", "result": "Crystalline"},
      {"measurement": "Total impurity (% a/a)", "setting": "[4]; 2-8° C., 3 months", "result": 1.7, "unit": "% a/a"},
      {"measurement": "Water content (% w/w)", "setting": "[4]; 2-8° C., 3 months", "result": 1.8, "unit": "% w/w"},
      {"measurement": "Assay ‘anhydrous and solvent-free basis’ (% w/w)", "setting": "[4]; 2-8° C., 6 months", "result": 97.7, "unit": "% w/w"},
      {"measurement": "Crystallinity", "setting": "[4]; 2-8° C., 6 months", "result": "Crystalline"},
      {"measurement": "Total impurity (% a/a)", "setting": "[4]; 2-8° C., 6 months", "result": 1.4, "unit": "% a/a"},
      {"measurement": "Water content (% w/w)", "setting": "[4]; 2-8° C., 6 months", "result": 2.1, "unit": "% w/w"},
      {"measurement": "Assay ‘anhydrous and solvent-free basis’ (% w/w)", "setting": "[4]; 2-8° C., Initial", "result": 95.8, "unit": "% w/w"},
      {"measurement": "Crystallinity", "setting": "[4]; 2-8° C., Initial", "result": "Crystalline"},
      {"measurement": "Total impurity (% a/a)", "setting": "[4]; 2-8° C., Initial", "result": 1.5, "unit": "% a/a"},
      {"measurement": "Water content (% w/w)", "setting": "[4]; 2-8° C., Initial", "result": 0.87, "unit": "% w/w"},
      {"measurement": "Assay ‘anhydrous and solvent-free basis’ (% w/w)", "setting": "[4]; 25° C. and 60% RH, 1 month", "result": 96.8, "unit": "% w/w"},
      {"measurement": "Total impurity (% a/a)", "setting": "[4]; 25° C. and 60% RH, 1 month", "result": 1.8, "unit": "% a/a"},
      {"measurement": "Water content (% w/w)", "setting": "[4]; 25° C. and 60% RH, 1 month", "result": 1.2, "unit": "% w/w"},
      {"measurement": "Assay ‘anhydrous and solvent-free basis’ (% w/w)", "setting": "[4]; 25° C. and 60% RH, 3 months", "result": 95.2, "unit": "% w/w"},
      {"measurement": "Total impurity (% a/a)", "setting": "[4]; 25° C. and 60% RH, 3 months", "result": 1.8, "unit": "% a/a"},
      {"measurement": "Water content (% w/w)", "setting": "[4]; 25° C. and 60% RH, 3 months", "result": 1.6, "unit": "% w/w"},
      {"measurement": "Assay ‘anhydrous and solvent-free basis’ (% w/w)", "setting": "[4]; 25° C. and 60% RH, 6 months", "result": 96.2, "unit": "% w/w"},
      {"measurement": "Total impurity (% a/a)", "setting": "[4]; 25° C. and 60% RH, 6 months", "result": 1.6, "unit": "% a/a"},
      {"measurement": "Water content (% w/w)", "setting": "[4]; 25° C. and 60% RH, 6 months", "result": 2.1, "unit": "% w/w"},
      {"measurement": "Assay ‘anhydrous and solvent-free basis’ (% w/w)", "setting": "[4]; 25° C. and 60% RH, Initial", "result": 95.8, "unit": "% w/w"},
      {"measurement": "Total impurity (% a/a)", "setting": "[4]; 25° C. and 60% RH, Initial", "result": 1.5, "unit": "% a/a"},
      {"measurement": "Water content (% w/w)", "setting": "[4]; 25° C. and 60% RH, Initial", "result": 0.87, "unit": "% w/w"},
      {"measurement": "Changes on storage", "setting": "[4]; accelerated (25° C. and 60% RH)", "result": "no significant changes"},
      {"measurement": "Changes on storage", "setting": "[4]; long term (2-8° C.)", "result": "no significant changes"},
      {"measurement": "XRPD (solid form)", "setting": "[5]; 7 days, 25° C.", "result": "Form I"},
      {"measurement": "XRPD (solid form)", "setting": "[5]; 7 days, 40° C. / 75% RH", "result": "Form I"},
      {"measurement": "XRPD (solid form)", "setting": "[5]; 7 days, 60° C.", "result": "Form I"},
      {"measurement": "XRPD (solid form)", "setting": "[5]; T0", "result": "Form I"},
      {"measurement": "Stability on storage (XRPD)", "setting": "[6]", "result": "stable"},
      {"measurement": "Form change after DVS testing (XRPD)", "setting": "[7]", "result": "no form change"}
    ]}
  ]
}
